According to publication PMC12395807, “Chemoreceptor family in plant-associated bacteria responds preferentially to the plant signal molecule glycerol 3-phosphate” (Genome Biology, 2025):
Like-named read-outs stand apart in the source and are kept apart here.

Key:
[1] = target: LBD of chemoreceptor R2 (WP_136157342.1) (Brenneria roseae, UniProt A0A2U1TV64, H128N/K136R); type: binding
Description: (§1) Plasmids for the overexpression of the different proteins were transformed into E. coli BL21(DE3). The resulting strains were grown under continuous stirring (200 rpm) at 30 °C in 2-L Erlenmeyer flasks containing 500 mL of LB medium supplemented with 50 μg/mL kanamycin. At an OD660 of 0.5, protein expression was induced by the addition of 0.1 mM isopropyl β-D-1-thiogalactopyranoside. Growth was continued at 16 °C overnight prior to cell harvesting by centrifugation at 10,000 × g for 20 min. Cell pellets were resuspended in buffer A (Additional file 2: Table S4) and subsequently broken by French press treatment at 62.5 lb/in^2. After centrifugation at 20,000 × g for 30 min, the supernatants were loaded onto 5-mL HisTrap HP columns (Amersham Biosciences) equilibrated with buffer A, and the proteins were eluted with a linear gradient of buffer B (Additional file 2: Table S4). All proteins contain a hexa-histidine tag at the N-terminal extension (Additional file 2: Table S3) and were purified at 4 °C. The purified proteins were dialyzed overnight into the corresponding analysis buffers (Additional file 2: Table S4) for immediate analysis.
(§2) All experiments were conducted on a VP microcalorimeter (Microcal, MA) at 15 °C for PacP-LBD and at 20 °C for the remaining proteins. Proteins were dialyzed into the analysis buffers specified in Additional file 2: Table S4, placed into the sample cell and titrated with aliquots of ligand solutions (1 to 10 mM) freshly prepared in dialysis buffer. The mean enthalpies measured from the injection of the ligands into the analysis buffer were subtracted from the raw titration data prior to data analysis with the MicroCal version of ORIGIN. The data were fitted with the “One binding site model” of ORIGIN.

[2] = target: ligand binding domain of the chemoreceptor ECA_RS12390 (PacP-LBD, R1, WP_011094075.1) (Pectobacterium atrosepticum, UniProt Q6D464); assay: ITC binding to PacP-LBD; conditions: 15 °C, Nb = no binding
Description: as §1, §2

[3] = target: LBD of chemoreceptor R9 (WP_189529961.1) (Paludibacterium paludis, UniProt A0A918NWY2); assay: ITC binding to R9-LBD; conditions: 20 °C, Nb = no binding
Description: as §1, §2

[4] = target: LBD of chemoreceptor R10 (WP_028866120.1); assay: ITC binding to R10-LBD; set-up: species or system Psychromonas aquimarina; conditions: 20 °C, Nb = no binding
Description: as §1, §2

[5] = target: LBD of chemoreceptor R5 (WP_028444678.1); assay: ITC binding to R5-LBD; set-up: species or system Chitinimonas koreensis; conditions: 20 °C, Nb = no binding
Description: as §1, §2

[6] = target: LBD of chemoreceptor R6 (WP_174062248.1); assay: ITC binding to R6-LBD; set-up: species or system Agrobacterium larrymoorei; conditions: 20 °C, Nb = no binding
Description: as §1, §2

[7] = tested on: ECA_RS12390-LBD (PacP-LBD); assay: Thermal shift ligand screening of PacP-LBD; type: binding, Pectobacterium atrosepticum; conditions: thermal shift assay, Biolog arrays PM1, PM2A, PM3B, PM4A
Description: Assays were carried out on a MyIQ2 Real-Time PCR instrument (Bio-Rad, Hercules, CA, USA). Ligand solutions were prepared by dissolving the array compounds in 50 µL of Milli-Q water, which, according to the manufacturer, corresponds to a concentration of 10–20 mM. Freshly purified proteins were dialyzed into analysis buffer (Additional file 2: Table S4). Compound arrays PM1, PM2A (carbon sources), PM3B (nitrogen sources), and PM4A (phosphorus and sulfur sources) from Biolog (https://www.biolog.com/) were used. The compositions of these arrays are provided in Additional file 2: Table S1. The experiments were conducted in 96-well plates, and each assay mixture contained 20 µL of the dialyzed protein (at 80–50 µM), 2 µL of 5 × SYPRO orange (Life Technologies, Eugene, Oregon, USA), and 2.5 µL of the resuspended array compound or the equivalent amount of buffer in the ligand-free control. The samples were heated from 23 to 85 °C at a scan rate of 1 °C/min. The protein unfolding curves were monitored by detecting changes in SYPRO® Orange fluorescence. The Tm values were determined from the first derivative values of the raw fluorescence data.

[8] = tested on: Pectobacterium atrosepticum SCRI1043; assay: Growth experiment, sole carbon source; type: cell-based; conditions: PFM9 minimal medium, 5 mM ligand, 30 °C, 48 h
Description: (§3) P. atrosepticum SCRI1043 was cultured overnight in phosphate-free M9-based medium (PFM9) supplemented with 20 mM glucose as the carbon source and 500 µM inorganic phosphate as the phosphate source. Cultures were washed and then diluted to an OD600 of 0.02 in PFM9 supplemented with different PacP ligands as the sole carbon or phosphorous source at a final concentration of 5 mM. Subsequently, 200 µL aliquots of these cultures were transferred into microwell plates, which were subsequently grown at 30 °C on a Bioscreen microbiological growth analyzer (Oy Growth Curves Ab Ltd., Helsinki, Finland) for 48 h.

[9] = target: LBD of chemoreceptor R3 (WP_006464688.1) (Herbaspirillum frisingense, UniProt A0ABU1PC34); assay: ITC binding to R3-LBD; conditions: 20 °C, Nb = no binding
Description: as §1, §2

[10] = tested on: P. atrosepticum SCRI1043 pacP mutant (MpacP); assay: Quantitative capillary chemotaxis assay, pacP mutant; type: cell-based, Pectobacterium atrosepticum; conditions: 1 mM ligand
Excerpt: A mutant defective in ECA_RS12390 was constructed by homologous recombination using a derivative plasmid of the suicide vector pKNG101. Briefly, a 0.5-kb fragment corresponding to the region encoding the LBD of ECA_RS12390 was amplified by the primers specified in Additional file 2: Table S2 and cloned into pGEM®-T. The resulting plasmid pGEM::ECA_RS12390 was digested with XmaI, and the 0.5-kb insert was cloned into the same site at pKNG101 to generate pKNG101::ECA_RS12390. This plasmid was subsequently transformed into P. atrosepticum SRCI1043 via biparental conjugation using E. coli β2163. All the plasmids were verified by PCR and sequencing. The pETb(+) derivatives encoding the LBD of the different receptors analyzed in this study (Table 1) were purchased from GeneScript. Plasmid pBBR-ECA_RS12390 was constructed by amplifying the pacP gene using the primers detailed in Additional file 2: Table S2 and cloning of the PCR product into the NdeI/BamHI sites of pBBR1MCS2_START. The sequences of the proteins analyzed in this study are provided in Additional file 2: Table S3. The ECA_RS12390 nucleotide sequence is available in the published genome of P. atrosepticum SCRI1043 [60].
(§4) Overnight cultures of P. atrosepticum SCRI1043 were grown at 30 °C in minimal medium. At an OD660 of 0.4–0.45, the cultures were washed twice with chemotaxis buffer (50 mM K2HPO4/KH2PO4, 20 μM EDTA, 0.05% (v/v) glycerol, pH 7.0) and diluted to an OD660 of 0.1 in the same buffer. Subsequently, 230 μL of the resulting bacterial suspension was placed into the wells of 96-well plates. One-microliter capillary tubes (P1424, Microcaps; Drummond Scientific) were heat-sealed at one end and filled with either chemotaxis buffer (negative control) or chemotaxis buffer containing PacP ligands at a concentration of 1 mM. The capillaries were immersed in the bacterial suspensions at their open ends. After 30 min at room temperature, the capillaries were removed from the bacterial suspensions, rinsed with sterile water, and the contents were expelled into 1 mL of 40 mM K2HPO4, 15 mM KH2PO4. Serial dilutions were plated onto minimal medium supplemented with 15 mM glucose as the carbon source. The number of colony-forming units was determined after 36 h of incubation at 30 °C. In all the cases, the data were corrected with the number of cells that swam into the buffer-containing capillaries.

[11] = target: LBD of chemoreceptor R4 (WP_158281851.1) (Rivihabitans pingtungensis, UniProt A0A318KJN4); assay: ITC binding to R4-LBD; set-up: species or system Rivicola pingtungensis; conditions: 20 °C, Nb = no binding
Description: as §1, §2

[12] = tested on: Pectobacterium atrosepticum SCRI1043; assay: Growth experiment, sole phosphorus source; type: cell-based; conditions: PFM9 minimal medium, 5 mM ligand, 30 °C, 48 h
Description: as §3

P. atrosepticum SCRI1043 = assay: Quantitative capillary chemotaxis assay, wild type; type: cell-based, Pectobacterium atrosepticum; conditions: wild type SCRI1043, 1 mM ligand, 30 min
Description: as §4

[13] = target: LBD of chemoreceptor R7 (WP_019915375.1); assay: ITC binding to R7-LBD; set-up: species or system Methyloversatilis discipulorum; conditions: 20 °C, Nb = no binding
Description: as §1, §2

Bacillus subtilis = tested on: Bacillus subtilis; set-up: method as in PMID 119030, PMID 500565; conditions: cited from earlier work
[14] = tested on: Bdellovibrio bacteriovorus; set-up: method as in PMID 119030, PMID 500565; conditions: cited from earlier work
ITC binding to R7-LBD = assay: ITC binding to R7-LBD; set-up: species or system Methyloversatilis discipulorum; conditions: 20 °C, Nb = no binding
Description: as §1, §2

[15] = ITC, 20 °C, R2 LBD, Nb = no binding

Sequence of LBD of chemoreceptor R3 (WP_006464688.1) (A0ABU1PC34 entry or part of it): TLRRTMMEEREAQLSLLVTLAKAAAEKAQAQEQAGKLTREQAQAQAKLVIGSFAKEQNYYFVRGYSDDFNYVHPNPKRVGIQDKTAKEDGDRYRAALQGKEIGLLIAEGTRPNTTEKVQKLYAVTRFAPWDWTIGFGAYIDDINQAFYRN
Sequence of LBD of chemoreceptor R2 (WP_136157342.1) (A0A2U1TV64 28-178 H128N/K136R): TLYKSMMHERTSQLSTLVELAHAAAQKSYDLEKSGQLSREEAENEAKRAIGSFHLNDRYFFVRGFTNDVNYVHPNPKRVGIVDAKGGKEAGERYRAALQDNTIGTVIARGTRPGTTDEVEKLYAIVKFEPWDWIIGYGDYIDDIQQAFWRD
Sequence of ligand binding domain of the chemoreceptor ECA_RS12390 (PacP-LBD, R1, WP_011094075.1) (Q6D464 entry or part of it): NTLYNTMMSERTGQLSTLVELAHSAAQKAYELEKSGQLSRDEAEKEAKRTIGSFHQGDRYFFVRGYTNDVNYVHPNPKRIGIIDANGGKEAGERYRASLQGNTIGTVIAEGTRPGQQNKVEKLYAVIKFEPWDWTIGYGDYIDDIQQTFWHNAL
Sequence of LBD of chemoreceptor R9 (WP_189529961.1) (A0A918NWY2 entry or part of it): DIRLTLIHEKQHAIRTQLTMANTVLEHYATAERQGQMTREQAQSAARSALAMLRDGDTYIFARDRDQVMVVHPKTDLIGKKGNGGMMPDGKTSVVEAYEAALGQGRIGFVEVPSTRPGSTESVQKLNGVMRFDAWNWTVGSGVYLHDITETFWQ
Sequence of LBD of chemoreceptor R4 (WP_158281851.1) (A0A318KJN4 entry or part of it): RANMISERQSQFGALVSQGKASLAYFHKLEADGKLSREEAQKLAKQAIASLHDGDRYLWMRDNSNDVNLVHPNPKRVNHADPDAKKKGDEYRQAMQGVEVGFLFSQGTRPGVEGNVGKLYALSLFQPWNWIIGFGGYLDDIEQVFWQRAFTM
Sequence of LBD of chemoreceptor R7 (WP_019915375.1) (as listed by the source): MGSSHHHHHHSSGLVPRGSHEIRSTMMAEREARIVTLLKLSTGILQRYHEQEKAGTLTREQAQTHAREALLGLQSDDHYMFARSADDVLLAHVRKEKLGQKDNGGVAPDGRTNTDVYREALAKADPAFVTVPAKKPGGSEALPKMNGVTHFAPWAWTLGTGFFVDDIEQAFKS

Q: For `CCCCCCC(N)C(=O)O` (racemic) [D,L-aminocaprylic acid], which KD [1, 15] is on record?
A: did not reveal binding

Q: Which KD [2] does the source give for `O=C(O)[C@H](CO)OP(=O)(O)O` [2-phosphoglycerate] here?
A: No binding

Q: Which results are given for `O=C(O)CC(Br)C(=O)O` (stereo not shown) [Bromosuccinate]?
A: Kd [3]: 200 ± 13 µM; KD [4]: Nb; KD [5]: Nb; KD [6]: Nb

Q: For `O=C(O)CC(O)(CC(=O)O)C(=O)O` [Citrate], which KD [3] is on record?
A: Nb

Q: What about the KD [4] of the same molecule?
A: Nb

Q: And the Kd [5]?
A: 10 ± 2 µM

Q: And the KD [6]?
A: Nb

Q: With `O=C(O)/C=C/C(=O)O` [Fumarate] as the molecule, how does the KD [3] read?
A: Nb

Q: And the KD [4]?
A: Nb

Q: What about the Kd [5] of the same molecule?
A: 68 ± 6 µM

Q: What about the Kd [6] of the same molecule?
A: 90 ± 4 µM

Q: With `O=C(O)CO` [Glycolate] as the molecule, how does the KD [3] read?
A: Nb

Q: And the Kd [4]?
A: 322 ± 114 µM

Q: And the KD [5]?
A: Nb

Q: And the KD [6]?
A: Nb

Q: With `N[C@@H](CS(=O)(=O)O)C(=O)O` [L-cysteic acid] as the molecule, how does the KD [1, 15] read?
A: did not reveal binding

Q: With `C[C@H](O)C(=O)O` [L-lactate] as the molecule, how does the KD [3] read?
A: Nb

Q: And the Kd [4]?
A: 463 ± 51 µM

Q: What about the KD [5] of the same molecule?
A: Nb

Q: What about the KD [6] of the same molecule?
A: Nb

Q: With `O=C(O)CC(O)C(=O)O` (stereo not shown) [Malate] as the molecule, how does the Kd [3] read?
A: 185 ± 5 µM

Q: And the KD [4]?
A: Nb

Q: And the Kd [5]?
A: 61 ± 2 µM

Q: What about the Kd [6] of the same molecule?
A: 63 ± 1 µM

Q: What does the source list for `CC(CC(=O)O)C(=O)O` (stereo not shown) [Methylsuccinate]?
A: Kd [3]: 254 ± 53 µM; KD [4]: Nb; KD [5]: Nb; KD [6]: Nb

Q: Which KD [2] does the source give for `CC(=O)C(=O)O` [Pyruvate] here?
A: did not bind

Q: What does the source list for `O=C(O)CCC(=O)O` [Succinate]?
A: KD [3]: Nb; Kd [4]: 362 ± 23 µM; Kd [5]: 127 ± 5 µM; Kd [6]: 90 ± 4 µM

Q: Which results are given for `O=C(O)CC(CC(=O)O)C(=O)O` [Tricarballylate]?
A: Kd [3]: 138 ± 33 µM; KD [4]: Nb; Kd [5]: 15 ± 1 µM; KD [6]: Nb

Q: With `CC(=O)O` [acetic acid] as the molecule, how does the KD [1] read?
A: did not reveal binding

Q: With `CC(=O)CC(=O)O` [acetoacetic acid] as the molecule, how does the KD [1, 15] read?
A: did not reveal binding

Q: Which KD [1, 15] does the source give for `CCCCCC(=O)O` [caproic acid] here?
A: did not reveal binding

Q: Which “Tm change with respect to the ligand-free protein” value [7] does the source give for `NC(=O)OP(=O)(O)O` [carbamoylphosphate] here?
A: significant increases in Tm

Q: What about the KD [2] of the same molecule?
A: did not result in measurable heat release

Q: Which results are given for `O=C(CO)COP(=O)(O)O` [dihydroxyacetone phosphate]?
A: growth as sole carbon source [8]: devoid of apparent metabolic value; KD [9]: bound; Kd [9]: 109 ± 14 µM; chemotaxis (capillary assay) [10]: Only glycerol 2-phosphate served as an attractant for the mutant; Kd [11]: 230 ± 10 µM; KD [3]: Nb; KD [4]: Nb; KD [5]: Nb; growth as sole phosphorus source [12]: devoid of apparent metabolic value; KD [6]: Nb; chemotaxis (capillary assay) (P. atrosepticum SCRI1043): Modest chemoattraction; Kd [2]: 13 ± 1 µM; KD [13]: Nb

Q: With `O=CO` [formic acid] as the molecule, how does the KD [1] read?
A: did not reveal binding

Q: With `O=CC(CO)OP(=O)(O)O` (stereo not shown) [glyceraldehyde 2-phosphate] as the molecule, how does the KD [13] read?
A: bound

Q: With `O=P(O)(O)OC(CO)CO` [glycerol 2-phosphate] as the molecule, how does the chemotaxis (Bacillus subtilis) read?
A: weak chemotaxis

Q: What about the KD [9] of the same molecule?
A: bound

Q: What about the Kd [9] of the same molecule?
A: 36 ± 2 µM

Q: What about the “chemotaxis (capillary assay)” value [10] of the same molecule?
A: served as an attractant

Q: And the Kd [11]?
A: 60 ± 2 µM

Q: And the chemotaxis [14]?
A: weak chemotaxis

Q: And the KD [3]?
A: Nb

Q: And the KD [4]?
A: Nb

Q: And the KD [5]?
A: Nb

Q: And the “growth as sole phosphorus source” value [12]?
A: permitted growth

Q: What about the KD [6] of the same molecule?
A: Nb

Q: And the “chemotaxis (capillary assay)” value (P. atrosepticum SCRI1043)?
A: Modest chemoattraction

Q: What about the Kd [2] of the same molecule?
A: 72 ± 2 µM

Q: What about the Kd (ITC binding to R7-LBD) of the same molecule?
A: 223 ± 45 µM

Q: For `CC(O)C(=O)O` (stereo not shown) [lactate], which KD [2] is on record?
A: did not bind

Q: For `CCC(=O)O` [propionic acid], which KD [1, 15] is on record?
A: did not reveal binding
